Patent US20220267380A1, “Glycopeptides Increasing Lipid Synthesis” (TFCHEM, priority 2019, published 2022)

Tests used:
[1] = tested on: normal human dermal fibroblasts (NHDF); experiment: Signal transduction pathway analysis (Ingenuity Pathway Analysis, activation z-score); conditions: 10 mg/ml
Excerpt: Signal transduction pathway analysis: the results were then processed with IPA (Ingenuity Pathway Analysis, Qiagen®) software to identify signal transduction pathways modulated by each treatment. This software takes into account the Fold Change values of each gene and, when there is enough information, the direction of modulation of the signal transduction pathways can be identified. The relevance of the effect of each treatment on a given pathway was quantified by z-score. The z-score predicts the directional change on that effect.
A more advanced bioinformatics analysis was performed using the Ingenuity Pathway Analysis software (IPA from Qiagen®). This analysis allows the identification of the impacted signaling pathways and predicts their modulation.

[2] = tested on: normal human dermal fibroblasts (NHDF); experiment: Identification of biological processes involved (DAVID / Gene Ontology functional annotation of modulated genes); conditions: 10 mg/ml, p-value≤0.05
Excerpt: Gene Ontology database has been more specifically used for the data interpretation. DAVID functional annotation part was used to cluster modulated genes into significant biological processes. […] DAVID database uses the Gene Ontology consortium (http://www.geneontology.org) vocabularies (GO terms) to describe gene products in terms of their associated biological processes. Among them, only biological processes with p-value≤0.05 were taken into account.
The gene modulations of NHDF treated with compound 1 (10 mg/ml), compound 3 (10 mg/ml) and compound 4 (10 mg/ml) vs control were analysed to cluster modulated genes into significant biological processes (p-value≤0.05).

SMILES | result of the analysis of signaling pathways [1] | Activation z-score, synthesis of cholesterol ([1]; positive = stimulation) | Activation z-score, synthesis of lipid ([1]; positive = stimulation) | main biological processes involved [2] | Activation z-score, Metabolism of cholesterol ([1]; positive = stimulation)
C[C@H](NC(=O)[C@H](C)NC(=O)[C@@H](N)CCCCNCC(F)(F)[C@]1(O)O[C@H](CO)[C@H](O)[C@H](O)[C@H]1O)C(=O)O [Compound 1] | predictive activation of the lipid synthesis and the cholesterol biosynthetic process at a transcriptional level | 2.169 | 2.668 | the lipid metabolic process and the cholesterol biosynthetic process | 
N[C@@H](CCCCNCC(F)(F)[C@]1(O)O[C@H](CO)[C@H](O)[C@H](O)[C@H]1O)C(=O)O [Compound 3] | predictive activation of the lipid synthesis and the cholesterol biosynthetic process at a transcriptional level | 0.399 | 1.002 | the lipid metabolic process and the cholesterol biosynthetic process | 1.083
CC(=O)N(CCCC[C@H](N)C(=O)O)CC(F)(F)[C@]1(O)O[C@H](CO)[C@H](O)[C@H](O)[C@H]1O [Compound 4] | predictive activation of the fatty acid and lipid synthesis and a stimulation of the adipocytes differentiation |  |  | the lipid metabolic process and the cholesterol biosynthetic process but also the ceramide metabolic process | 
